We go through 39 molecules from ChEMBL document CHEMBL4382229, “Benzofuran derivatives and their anti-tubercular, anti-bacterial activities” (Eur J Med Chem, 2019).

Values after ≈ are worked out from the molar mass of the structure shown.

Format in all cases: functional
For assay [1], the system named is Staphylococcus aureus. As to the kind of experiment: Antibacterial activity against Staphylococcus aureus assessed as zone of inhibition at 1 mg/ml after 32 hrs by agar-well diffusion method. The note with it: read-out: IZ.
The subject of the next assay is Klebsiella pneumoniae. As to the kind of experiment: Antibacterial activity against Klebsiella pneumoniae assessed as zone of inhibition at 1 mg/ml after 32 hrs by agar-well diffusion method. The note with it: read-out: IZ.
The test system of assay [2] is Pseudomonas aeruginosa. The assay is described as follows: Antibacterial activity against Pseudomonas aeruginosa assessed as zone of inhibition at 1 mg/ml after 32 hrs by agar-well diffusion method. The note with it: read-out: IZ.
For assay [3], the system named is Escherichia coli. As to the kind of experiment: Antibacterial activity against Escherichia coli assessed as zone of inhibition at 1 mg/ml after 32 hrs by agar-well diffusion method. The note with it: read-out: IZ.
Assay [4] relates to Bacillus subtilis. The assay is described as follows: Antibacterial activity against Bacillus subtilis NCIM 2439 assessed as zone of inhibition at 1 ug/ml after 24 hrs by agar diffusion method. The note with it: NCIM 2439, 24 h, read-out: IZ.
For assay [5], the system named is Staphylococcus aureus. As to the kind of experiment: Antibacterial activity against Staphylococcus aureus NCIM 2079 assessed as zone of inhibition at 1 ug/ml after 24 hrs by agar diffusion method. The note with it: NCIM 2079, 24 h, read-out: IZ.
The test system of assay [6] is Escherichia coli. The assay is described as follows: Antibacterial activity against Escherichia coli NCIM 2064 assessed as zone of inhibition at 1 ug/ml after 24 hrs by agar diffusion method. The note with it: NCIM 2064, 24 h, read-out: IZ.
For assay [7], the system named is Pseudomonas aeruginosa. As to the kind of experiment: Antibacterial activity against Pseudomonas aeruginosa NCIB 8650 assessed as zone of inhibition at 1 ug/ml after 24 hrs by agar diffusion method. The note with it: NCIB 8650, 24 h, read-out: IZ.
Assay [8] relates to Bacillus subtilis. The assay is described as follows: Antibacterial activity against Bacillus subtilis MTCC 1134 after 24 hrs by broth dilution method. The note with it: MTCC 1134, 24 h.
Assay [9] deals with Escherichia coli. As to the kind of experiment: Antibacterial activity against Escherichia coli MTCC 1559 after 24 hrs by broth dilution method. The note with it: MTCC 1559, 24 h.
Assay [10] concerns Pseudomonas aeruginosa. As to the kind of experiment: Antibacterial activity against Pseudomonas aeruginosa MTCC 1034 after 24 hrs by broth dilution method. The note with it: MTCC 1034, 24 h.

In the case of `Cc1ccc(-c2csc3nc(-c4cc5ccccc5o4)cn23)cc1`, the zone of inhibition at 1000 µg/mL in the assay with Staphylococcus aureus [1], in the assay on Klebsiella pneumoniae, in the assay on Pseudomonas aeruginosa [2] and in the assay with Escherichia coli [3] was 6 to 23 mm throughout.
With `COC(=O)c1cc(-c2cc3cc(Br)ccc3o2)n(C(N)=O)n1`, the zone of inhibition at 1 µg/mL in the assay with Bacillus subtilis [4], in the assay on Staphylococcus aureus [5], with Escherichia coli [6] and in the assay on Pseudomonas aeruginosa [7] was 9 to 30 mm in each case.
On to `Sc1nc(-c2cc3ccccc3o2)cc(-c2cccs2)n1`, for which the minimal inhibitory concentration (MIC) against Bacillus subtilis [8], with Escherichia coli [9] and against Pseudomonas aeruginosa [10] was 4.32 to 18.4 µg/mL (≈ 13.9 to 59.4 µM) throughout.
Consider `Cc1ccc(-c2cc(-c3cc4cc(Br)ccc4o3)nc(N)n2)s1`, for which the MIC against Bacillus subtilis [8], against Escherichia coli [9] and in the assay on Pseudomonas aeruginosa [10] was 4.32 to 18.4 µg/mL (≈ 11.2 to 47.8 µM) throughout.
`Cc1ccc(-c2cc(-c3cc4cc(Br)ccc4o3)nc(S)n2)s1`: the minimal inhibitory concentration (MIC) in the assay on Bacillus subtilis [8], against Escherichia coli [9] and against Pseudomonas aeruginosa [10] was 4.32 to 18.4 µg/mL (≈ 10.7 to 45.7 µM) in each case.
As to `Fc1ccc(-c2csc3nc(-c4cc5ccccc5o4)cn23)cc1`, the zone of inhibition at 1000 µg/mL in the assay on Staphylococcus aureus [1], with Klebsiella pneumoniae, in the assay on Pseudomonas aeruginosa [2] and with Escherichia coli [3] was 6 to 23 mm each time.
On to `Fc1ccc(-c2csc3nc(-c4cc5cc(Br)ccc5o4)cn23)cc1`, for which the zone of inhibition at 1000 µg/mL in the assay on Staphylococcus aureus [1], in the assay on Klebsiella pneumoniae, with Pseudomonas aeruginosa [2] and in the assay on Escherichia coli [3] was 6 to 23 mm each time.
Take `COC(=O)c1cc(-c2oc3c(Cl)cc(Cl)cc3c2C)n(C(N)=O)n1`: the zone of inhibition at 1 µg/mL with Bacillus subtilis [4], in the assay with Staphylococcus aureus [5], in the assay with Escherichia coli [6] and in the assay with Pseudomonas aeruginosa [7] was 9 to 30 mm in each case.
In the case of `CCOC(=O)c1cc(-c2cc3ccccc3o2)on1`, the zone of inhibition at 1 µg/mL in the assay on Bacillus subtilis [4], in the assay with Staphylococcus aureus [5], in the assay with Escherichia coli [6] and with Pseudomonas aeruginosa [7] was 9 to 30 mm throughout.
In the case of `Brc1ccc2oc(-c3cn4c(-c5cc6ccccc6o5)csc4n3)cc2c1`, the zone of inhibition at 1000 µg/mL in the assay on Staphylococcus aureus [1], with Klebsiella pneumoniae, in the assay with Pseudomonas aeruginosa [2] and in the assay with Escherichia coli [3] was 6 to 23 mm throughout.
Take `Nc1nc(-c2cc3cc(Br)ccc3o2)cc(-c2cccs2)n1`: the minimum inhibitory concentration (MIC) with Bacillus subtilis [8], with Escherichia coli [9] and with Pseudomonas aeruginosa [10] was 4.32 to 18.4 µg/mL (≈ 11.6 to 49.6 µM) throughout.
As to `Nc1nc(-c2cc3ccccc3o2)cc(-c2cccs2)n1`, the MIC in the assay with Bacillus subtilis [8], against Escherichia coli [9] and in the assay with Pseudomonas aeruginosa [10] was 4.32 to 18.4 µg/mL (≈ 14.7 to 62.9 µM) in each case.
For `Cc1c(-c2cc(C(=O)NN)nn2-c2ccccc2)oc2c(Cl)cc(Cl)cc12`, the zone of inhibition at 1 µg/mL in the assay with Bacillus subtilis [4], in the assay with Staphylococcus aureus [5], with Escherichia coli [6] and with Pseudomonas aeruginosa [7] was 9 to 30 mm each time.
Take `COC(=O)c1cc(-c2cc3cc(Br)ccc3o2)[nH]n1`: the zone of inhibition at 1 µg/mL with Bacillus subtilis [4], with Staphylococcus aureus [5], with Escherichia coli [6] and in the assay on Pseudomonas aeruginosa [7] was 9 to 30 mm in each case.
For the molecule `Brc1ccc2oc(-c3cn4c(-c5ccccc5)csc4n3)cc2c1`, the zone of inhibition at 1000 µg/mL in the assay on Staphylococcus aureus [1], with Klebsiella pneumoniae, with Pseudomonas aeruginosa [2] and with Escherichia coli [3] was 15 to 20 mm throughout.
`COC(=O)c1cc(-c2oc3ccc(Cl)cc3c2C)n(C(N)=O)n1`: the zone of inhibition at 1 µg/mL in the assay on Bacillus subtilis [4], in the assay with Staphylococcus aureus [5], in the assay on Escherichia coli [6] and in the assay with Pseudomonas aeruginosa [7] was 9 to 30 mm each time.
For the molecule `COC(=O)c1cc(-c2cc3ccccc3o2)n(C(N)=O)n1`, the zone of inhibition at 1 µg/mL with Bacillus subtilis [4], with Staphylococcus aureus [5], in the assay on Escherichia coli [6] and in the assay with Pseudomonas aeruginosa [7] was 9 to 30 mm in each case.
For `Oc1nc(-c2cc3cc(Br)ccc3o2)cc(-c2cccs2)n1`, the MIC against Bacillus subtilis [8], against Escherichia coli [9] and with Pseudomonas aeruginosa [10] was 4.32 to 18.4 µg/mL (≈ 11.6 to 49.4 µM) each time.
Regarding `CCOC(=O)c1cc(-c2oc3c(Cl)cc(Cl)cc3c2C)on1`, the zone of inhibition at 1 µg/mL with Bacillus subtilis [4], in the assay on Staphylococcus aureus [5], in the assay with Escherichia coli [6] and in the assay on Pseudomonas aeruginosa [7] was 9 to 30 mm in each case.
As for `Brc1ccc2oc(-c3cn4c(-c5cc6cc(Br)ccc6o5)csc4n3)cc2c1`, the zone of inhibition at 1000 µg/mL in the assay on Staphylococcus aureus [1], with Klebsiella pneumoniae, with Pseudomonas aeruginosa [2] and in the assay on Escherichia coli [3] was 6 to 23 mm each time.
Turning to `Brc1ccc2oc(-c3csc4nc(-c5cc6ccccc6o5)cn34)cc2c1`, the zone of inhibition at 1000 µg/mL with Staphylococcus aureus [1], with Klebsiella pneumoniae, in the assay on Pseudomonas aeruginosa [2] and in the assay with Escherichia coli [3] was 6 to 23 mm throughout.
In the case of `CCOC(=O)c1cc(-c2oc3ccc(Cl)cc3c2C)on1`, the zone of inhibition at 1 µg/mL in the assay on Bacillus subtilis [4], in the assay on Staphylococcus aureus [5], with Escherichia coli [6] and in the assay with Pseudomonas aeruginosa [7] was 9 to 30 mm in each case.
As for `Cc1ccc(-c2cc(-c3cc4ccccc4o3)nc(O)n2)s1`, the minimal inhibitory concentration (MIC) in the assay on Bacillus subtilis [8], in the assay with Escherichia coli [9] and in the assay on Pseudomonas aeruginosa [10] was 4.32 to 18.4 µg/mL (≈ 14 to 59.8 µM) throughout.
Take `COC(=O)c1cc(-c2oc3ccc(Cl)cc3c2C)n(-c2ccccc2)n1`: the zone of inhibition at 1 µg/mL in the assay on Bacillus subtilis [4], in the assay with Staphylococcus aureus [5], in the assay on Escherichia coli [6] and in the assay on Pseudomonas aeruginosa [7] was 9 to 30 mm throughout.
With `NNC(=O)c1cc(-c2cc3cc(Br)ccc3o2)n(-c2ccccc2)n1`, the zone of inhibition at 1 µg/mL with Bacillus subtilis [4], in the assay on Staphylococcus aureus [5], in the assay on Escherichia coli [6] and with Pseudomonas aeruginosa [7] was 9 to 30 mm in each case.
On to `COC(=O)c1cc(-c2oc3c(Cl)cc(Cl)cc3c2C)n(-c2ccccc2)n1`, for which the zone of inhibition at 1 µg/mL in the assay on Bacillus subtilis [4], in the assay with Staphylococcus aureus [5], in the assay with Escherichia coli [6] and in the assay on Pseudomonas aeruginosa [7] was 9 to 30 mm throughout.
`CCOC(=O)c1cc(-c2cc3cc(Br)ccc3o2)on1`: the zone of inhibition at 1 µg/mL with Bacillus subtilis [4], with Staphylococcus aureus [5], in the assay with Escherichia coli [6] and with Pseudomonas aeruginosa [7] was 9 to 30 mm in each case.
Consider `Cc1c(-c2cc(C(=O)NN)nn2-c2ccccc2)oc2ccc(Cl)cc12`, for which the zone of inhibition at 1 µg/mL with Bacillus subtilis [4], in the assay with Staphylococcus aureus [5], in the assay on Escherichia coli [6] and with Pseudomonas aeruginosa [7] was 9 to 30 mm each time.
In the case of `c1ccc(-c2csc3nc(-c4cc5ccccc5o4)cn23)cc1`, the zone of inhibition at 1000 µg/mL in the assay on Staphylococcus aureus [1], with Klebsiella pneumoniae, with Pseudomonas aeruginosa [2] and with Escherichia coli [3] was 6 to 23 mm throughout.
In the case of `Cc1ccc(-c2cc(-c3cc4cc(Br)ccc4o3)nc(O)n2)s1`, the minimum inhibitory concentration (MIC) in the assay on Bacillus subtilis [8], against Escherichia coli [9] and with Pseudomonas aeruginosa [10] was 4.32 to 18.4 µg/mL (≈ 11.2 to 47.6 µM) in each case.
For the molecule `NNC(=O)c1cc(-c2cc3ccccc3o2)n(-c2ccccc2)n1`, the zone of inhibition at 1 µg/mL with Bacillus subtilis [4], in the assay with Staphylococcus aureus [5], with Escherichia coli [6] and in the assay with Pseudomonas aeruginosa [7] was 9 to 30 mm each time.
Turning to `COC(=O)c1cc(-c2oc3ccc(Cl)cc3c2C)[nH]n1`, the zone of inhibition at 1 µg/mL with Bacillus subtilis [4], in the assay with Staphylococcus aureus [5], in the assay on Escherichia coli [6] and with Pseudomonas aeruginosa [7] was 9 to 30 mm in each case.
Turning to `COC(=O)c1cc(-c2cc3cc(Br)ccc3o2)n(-c2ccccc2)n1`, the zone of inhibition at 1 µg/mL in the assay with Bacillus subtilis [4], in the assay with Staphylococcus aureus [5], with Escherichia coli [6] and in the assay on Pseudomonas aeruginosa [7] was 9 to 30 mm throughout.
In the case of `COC(=O)c1cc(-c2cc3ccccc3o2)[nH]n1`, the zone of inhibition at 1 µg/mL in the assay with Bacillus subtilis [4], in the assay on Staphylococcus aureus [5], in the assay on Escherichia coli [6] and in the assay on Pseudomonas aeruginosa [7] was 9 to 30 mm in each case.
`COC(=O)c1cc(-c2cc3ccccc3o2)n(-c2ccccc2)n1`: the zone of inhibition at 1 µg/mL with Bacillus subtilis [4], in the assay on Staphylococcus aureus [5], in the assay with Escherichia coli [6] and with Pseudomonas aeruginosa [7] was 9 to 30 mm throughout.
For `Cc1ccc(-c2cc(-c3cc4ccccc4o3)nc(S)n2)s1`, the minimal inhibitory concentration (MIC) in the assay with Bacillus subtilis [8], against Escherichia coli [9] and in the assay with Pseudomonas aeruginosa [10] was 4.32 to 18.4 µg/mL (≈ 13.3 to 56.9 µM) each time.
In the case of `Sc1nc(-c2cc3cc(Br)ccc3o2)cc(-c2cccs2)n1`, the MIC with Bacillus subtilis [8], against Escherichia coli [9] and against Pseudomonas aeruginosa [10] was 4.32 to 18.4 µg/mL (≈ 11.1 to 47.4 µM) in each case.
With `COC(=O)c1cc(-c2oc3c(Cl)cc(Cl)cc3c2C)[nH]n1`, the zone of inhibition at 1 µg/mL in the assay with Bacillus subtilis [4], with Staphylococcus aureus [5], in the assay on Escherichia coli [6] and in the assay on Pseudomonas aeruginosa [7] was 19 to 30 mm each time.
For `Oc1nc(-c2cc3ccccc3o2)cc(-c2cccs2)n1`, the minimal inhibitory concentration (MIC) against Bacillus subtilis [8], against Escherichia coli [9] and against Pseudomonas aeruginosa [10] was 4.32 to 18.4 µg/mL (≈ 14.7 to 62.7 µM) in each case.
